Reference: US11142718B2, “Ecofriendly and biodegradable lubricant formulation and process for preparation thereof” (Council of Scientific & Industrial Research, priority 2017, dated 2021)
Like-named read-outs stand apart in the source and are kept apart here.

Legend:
Assay type in all cases: physicochemical
[1] = Kinematic viscosity (IS: 1448: P-25); details: for viscosity at 40° C.: in cSt; for KV in cst at 40° C.: P-25
Procedure: (§1) In an embodiment of the present invention the polyol complex ester base oils may be selected from the viscosity range of 34.26 to 43.54 cSt at 40° C. as per IS: 1448: P-25 matching the specification and a high viscosity index of 161-171 as per P-56.
(§2) The synthesized products have the following characteristics: • a. The prepared esters have viscosity grade of 31.0 to 47.0 cSt at 40° C. as per P-25 matching the specification and a high viscosity index of 161-171 as per P-56. • b. […] The biodegradability of the synthesized ester is above 95% as per the standard ASTM D: 5864 test method for biodegradability. • e. The products are non toxic to the sewage bacteria. • f. The conventional additives which are suitable for mineral oils are also giving positive response with this ester. • g. The products have good anti wear properties with wear scar diameter of 0.350 mm at 40 kgf load as per ASTM D: 4172B. • h. The products have excellent load bearing capacity. • i. The products have good lubricity. • j. The products have good oxidative stability. • k. The products have no evaporation loss. • l. The products have good adherence to metal characteristics. • m. The products have good corrosion inhibiting characteristics. • n. […] Synthetic biodegradable polyol complex ester lubricating oils have excellent biodegradability, a high viscosity index and a low pour point, a high flash point, very good lubricity, good oxidative stability and property of preventing corrosion and suitable for use with sealing materials. • p.

Viscosity index (P-56) = assay: Viscosity index (P-56)
Procedure: as §1, §2

[2] = Kinematic viscosity (IS: 1448: P-25); details: for viscosity at 100° C. / viscosity at 0° C.: in cSt
[3] = Pour point (IS: 1448: P-10)
Procedure: as §2

Density (ASTM D: 4052) = assay: Density (ASTM D: 4052)
Evaporation loss (P-136) = assay: Evaporation loss (P-136)
Acidity (P-2) = assay: Acidity (P-2)
[4] = Adherence to metal (drop diameter change, contact angle); details: polished mild steel substrates

| Structure (SMILES) | viscosity at 40° C. [1] | viscosity index (Viscosity index (P-56)) | viscosity at 100° C. [2] | pour point [3] [°C] | KV in cst at 40° C. [1] [cst] | Density, d4^20 (Density (ASTM D: 4052)) [gm/ml] | Evaporation loss, % by mass (Evaporation loss (P-136)) [% by mass] | Acidity, Inorganic (Acidity (P-2)) | Acidity, Organic (Acidity (P-2)) | viscosity index (Viscosity index (P-56); P-56) | KV in cst at 0° C. [2] [cst] | viscosity at 0° C. [2] | KV in cst at −35° C. [2] [cst] | Adherence to metal, change in diameter of the drop, percent [4] [%] | pour point ([3]; P-10) [°C] |
| --- | --- | --- | --- | --- | --- | --- | --- | --- | --- | --- | --- | --- | --- | --- | --- |
| CCCCC(CC)COC(=O)CCCCC(=O)OCC(CC)(CC)COC(=O)CCCCC(=O)OCC(CC)CCCC (centres unmarked) [DEADEH, 2,2-diethyl 1,3-propane di adipic 2 ethyl 1 hexanoate] | 91.3 | 138 | 12.83 | > −24 | – | – | – | – | – | – | – | – | – | – | – |
| CCCCC(CC)COC(=O)CCCCCCCC(=O)OCC(CC)(CC)COC(=O)CCCCCCCC(=O)OCC(CC)CCCC (centres unmarked) [DEAZEH, 2,2-diethyl 1,3-propane diazelaic 2 ethyl 1 hexanoate] | 47.0 | 171 | – | > −39 | 47.00 | 0.9627 | 0.42 | Nil | 0.0635 mg KoH/gm of oil | 171 | 408.23 | 408.23 | >5000 | 13 | <−39 |
| CCCCC(CC)COC(=O)CCCCCCCCC(=O)OCC(CC)(CC)COC(=O)CCCCCCCCC(=O)OCC(CC)CCCC (centres unmarked) [DESEH, 2,2-diethyl 1,3-propane disebacic 2 ethyl 1 hexanoate] | 36.8 | 165 | 7.24 | > −39 | – | – | – | – | – | – | – | – | – | – | – |
| CCCCC(CC)COC(=O)CCCCC(=O)OCC(C)(C)COC(=O)CCCCC(=O)OCC(CC)CCCC (centres unmarked) [DMADEH, 2,2-dimethyl 1,3-propane di adipic 2 ethyl 1 hexanoate] | 31.00 | 161 | – | > −39 | 31.00 | 0.9915 | 0.48 | Nil | 0.0817 mg KoH/gm of oil | 161 | 323.98 | 323.98 | >4000 | 12 | <−39 |
| CCCCC(CC)COC(=O)CCCCCCCC(=O)OCC(C)(C)COC(=O)CCCCCCCC(=O)OCC(CC)CCCC (centres unmarked) [DMAZEH, 2,2-dimethyl 1,3-propane diazelaic 2 ethyl 1 hexanoate] | 25.44 | 169 | 5.60 | > −27 | – | – | – | – | – | – | – | – | – | – | – |
| CCCCC(CC)COC(=O)CCCCCCCCC(=O)OCC(C)(C)COC(=O)CCCCCCCCC(=O)OCC(CC)CCCC (centres unmarked) [DMSEH, 2,2-dimethyl 1,3-propane disebacid 2 ethyl 1 hexanoate] | 90.33 | 172 | 14.8 | > −24 | – | – | – | – | – | – | – | – | – | – | – |
| CCCCC(CC)COC(=O)CCCCC(=O)OCC(CC)(COC(=O)CCCCC(=O)OCC(CC)CCCC)COC(=O)CCCCC(=O)OCC(CC)CCCC (centres unmarked) [THADEH, 1,1,1-trishydroxymethyl propane triadipic 2 ethyl 1 hexanoate] | 26.51 | 196 | 10.17 | > −15 | – | – | – | – | – | – | – | – | – | – | – |
| CCCCC(CC)COC(=O)CCCCCCCC(=O)OCC(CC)(COC(=O)CCCCCCCC(=O)OCC(CC)CCCC)COC(=O)CCCCCCCC(=O)OCC(CC)CCCC (centres unmarked) [THAZEH, 1,1,1-trishydroxymethyl propane triazilaic 2 ethyl 1 hexanoate] | 46.07 | 165 | 8.53 | > −27 | – | – | – | – | – | – | – | – | – | – | – |
| CCCCC(CC)COC(=O)CCCCCCCCC(=O)OCC(CC)(COC(=O)CCCCCCCCC(=O)OCC(CC)CCCC)COC(=O)CCCCCCCCC(=O)OCC(CC)CCCC (centres unmarked) [THSEH, 1,1,1-trishydroxymethyl propane trisebacic 2 ethyl 1 hexanoate] | 111 | 196 | 16.87 | > −24 | – | – | – | – | – | – | – | – | – | – | – |
